Values belong to the compound of their own block, whether it stands above or below them.
Columns and labels:
D(2) dopamine receptor [1] = target: T1, D(2) dopamine receptor (Homo sapiens, UniProt P14416)
D(2) dopamine receptor [2] = target: T1, D(2) dopamine receptor; assay: Displacement of [3H]raclopride from human dopamine D2A receptors expressed in LtK cells; format: cell-based
D(2) dopamine receptor [3] = target: T1, D(2) dopamine receptor; assay: Displacement of [3H]quinpirole from human dopamine D2A receptors expressed in LtK cells; format: cell-based

T1 sequence (P14416 whole entry): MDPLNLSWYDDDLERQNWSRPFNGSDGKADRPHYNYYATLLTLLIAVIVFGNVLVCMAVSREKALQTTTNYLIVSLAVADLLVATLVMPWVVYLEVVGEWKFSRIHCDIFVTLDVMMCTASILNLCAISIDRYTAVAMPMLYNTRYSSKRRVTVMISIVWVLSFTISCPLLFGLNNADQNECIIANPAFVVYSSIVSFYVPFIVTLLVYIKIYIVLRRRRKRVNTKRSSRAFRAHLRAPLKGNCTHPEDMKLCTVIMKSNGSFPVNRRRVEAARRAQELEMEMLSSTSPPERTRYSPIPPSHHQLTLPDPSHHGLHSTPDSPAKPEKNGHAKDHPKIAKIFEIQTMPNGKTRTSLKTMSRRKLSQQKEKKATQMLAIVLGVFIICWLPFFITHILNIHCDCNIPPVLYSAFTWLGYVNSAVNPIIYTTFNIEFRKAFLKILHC

SMILES: CCCN(CCC)[C@@H]1CCc2c(F)cccc2C1
nH (D(2) dopamine receptor [1]): 0.89

SMILES: CCCN(CCC)[C@@H]1CCc2c(cccc2OC)C1
Ki (D(2) dopamine receptor [2]): 46 nM | nH (D(2) dopamine receptor [1]): 1.06 | Ki (D(2) dopamine receptor [3]): 6.35 nM

SMILES: CCCN(Cc1ccccc1)[C@@H]1CCc2c(cccc2OC)C1
Ki (D(2) dopamine receptor [2]): 65.6 nM | nH (D(2) dopamine receptor [1]): 1.05 | Ki (D(2) dopamine receptor [3]): 75 nM

SMILES: CCCN(Cc1ccc(OC)cc1)[C@@H]1CCc2c(cccc2OC)C1
Ki (D(2) dopamine receptor [2]): 22 nM | nH (D(2) dopamine receptor [1]): 0.94 | Ki (D(2) dopamine receptor [3]): 64.1 nM

SMILES: CCCN[C@@H]1CCc2c(cccc2OC)C1
Ki (D(2) dopamine receptor [2]): 114 nM | nH (D(2) dopamine receptor [1]): 1.06 | Ki (D(2) dopamine receptor [3]): 82.3 nM

SMILES: NCCc1ccc(O)c(O)c1
nH (D(2) dopamine receptor [1]): 0.65

SMILES: COc1cccc2c1CC[C@@H](NCc1ccccc1)C2
Ki (D(2) dopamine receptor [2]): 1010 nM | nH (D(2) dopamine receptor [1]): 0.83 | Ki (D(2) dopamine receptor [3]): 1310 nM

The remaining lines, values ahead:

Ki (D(2) dopamine receptor [2]): 152 nM | nH (D(2) dopamine receptor [1]): 0.9 | Ki (D(2) dopamine receptor [3]): 339 nM
SMILES: CCCN(Cc1cccs1)[C@@H]1CCc2c(cccc2OC)C1

Ki (D(2) dopamine receptor [2]): 125 nM | nH (D(2) dopamine receptor [1]): 0.83 | Ki (D(2) dopamine receptor [3]): 118 nM
SMILES: CCCN(Cc1ccco1)[C@@H]1CCc2c(cccc2OC)C1

Ki (D(2) dopamine receptor [2]): 43.8 nM | nH (D(2) dopamine receptor [1]): 0.9 | Ki (D(2) dopamine receptor [3]): 69.7 nM
SMILES: CCCN(Cc1ccc(F)cc1)[C@@H]1CCc2c(cccc2OC)C1

nH (D(2) dopamine receptor [1]): 0.86
SMILES: CCCN(Cc1ccccc1)[C@@H]1CCc2c(F)cccc2C1

Ki (D(2) dopamine receptor [2]): > 5000 nM | Ki (D(2) dopamine receptor [3]): > 5000 nM
SMILES: COc1cccc2c1CC[C@@H](N(Cc1ccccc1)Cc1ccccc1)C2

Ki (D(2) dopamine receptor [2]): 59.2 nM | nH (D(2) dopamine receptor [1]): 0.9 | Ki (D(2) dopamine receptor [3]): 215 nM
SMILES: CCCN(Cc1ccc([N+](=O)[O-])cc1)[C@@H]1CCc2c(cccc2OC)C1

Source: ChEMBL document CHEMBL1131815, “Derivatives of (R)-2-amino-5-methoxytetralin: antagonists and inverse agonists at the dopamine D2A receptor” (Bioorg Med Chem Lett, 1999)
